According to patent US20240118280A1 (priority 2022, published 2024):
“Also recorded” adds a separate entry of the source.

Molecular target: T1, human EGFR kinase (Homo sapiens, UniProt P00533)
T1 construct: The EGFR kinase domain is incubated with Ibrutinib-yne or a DMSO control at 37° C. for 1 hour; made in house
Assay: Activity-based protein fingerprinting: covalent labelling of EGFR kinase by chemical probe (PAGE, fluorescent imaging, LC-MS)
Format: binding
Protocol: The EGFR kinase domain is incubated with Ibrutinib-yne or a DMSO control at 37° C. for 1 hour. The EGFR kinase domain bound to Ibrutinib-yne is exposed to cysteine reduction and capping using TCEP and chloroacetamide at 37° C. for 1 hour. The product is desalted with a 7 kDa zeba column and exposed to proteolytic digestion by trypsin at 37° C. for 16 hours. The product is further conjugated with bis-biotin-DNA-SS-azide at room temperature for 30 minutes and finally exposed to DTT at 65° C. for 10 minutes.
FIGS. 5A-5C show LC-MS plots of DMSO control (FIG. 5A), Ibrutinib-yne (FIG. 5B), and Ibrutinib-yne with a DNA control molecule and DTT (FIG. 5C). The blue box represents unmodified peptide, the green box represents peptide bound to Ibrutinib-yne, and the red box represents peptide-Ibrutinib-yne-DNA adduct following disulfide reduction.
Using the steps of Example 1, EGFR kinase was detected using activity-based protein fingerprinting. The commercially available drug analog Ibrutinib-yne, which binds to the catalytic cysteine of EGFR comprises an electrophilic warhead and an alkyne moiety for the CLICK handle processing step. Purified human EGFR kinase was generated (FIG. 2A) and exposed to Ibrutinib-yne (FIG. 2B). […] The target peptide detected by this protocol LLGIC(Alk)[…]) (SEQ ID NO:1) was detected by LC-MS (FIGS. 5A-5C).

## Ibrutinib-yne
After TCEP/chloroacetamide capping and trypsin digestion, vs DMSO control
  LC-MS detection of target peptide LLGIC(Alk)[…] (SEQ ID NO:1): detected only in its modified state
Probe or DMSO control incubated with EGFR at 37° C. for 1 hour, PAGE
  probe-EGFR kinase complex observed by Coomassie Blue staining and fluorescent imaging (AF647-azide): desired complex was observed; also recorded: only the protein bearing Ibrutinib-yne reacted with AF647-azide
